Target: IgE-Tb / FcεRIα-Y131A-AF488 (Homo sapiens, UniProt P01854)
Test: IgE-Tb / FcεRIα-Y131A-AF488 FRET assay (protocol for examples 1 to 233)
Type: binding
Details: examples 1 to 233: 5 nM IgE-Tb, 25 nM FcεRIα-Y131A-AF488, incubated 2 hours at room temperature; read-out: Y131A FRET IC50 range
How it was run: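 TR-FRET displacement with 5 nM IgE-Tb and 25 nM FcεRIα-Y131A-AF488 (final), 10-point 3-fold compound dilutions from typically 10 μM top, 2% DMSO, 2 h at room temperature. Excitation 330 nm, 520/495 nm emission ratio; MIN set with 200 nM unlabelled FcεRIα. IC50 from four-parameter logistic fit of percent inhibition.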

IgE-Tb / FcεRIα-Y131A-AF488, sequence (P01854 1-427 limits assumed, stated change not applied): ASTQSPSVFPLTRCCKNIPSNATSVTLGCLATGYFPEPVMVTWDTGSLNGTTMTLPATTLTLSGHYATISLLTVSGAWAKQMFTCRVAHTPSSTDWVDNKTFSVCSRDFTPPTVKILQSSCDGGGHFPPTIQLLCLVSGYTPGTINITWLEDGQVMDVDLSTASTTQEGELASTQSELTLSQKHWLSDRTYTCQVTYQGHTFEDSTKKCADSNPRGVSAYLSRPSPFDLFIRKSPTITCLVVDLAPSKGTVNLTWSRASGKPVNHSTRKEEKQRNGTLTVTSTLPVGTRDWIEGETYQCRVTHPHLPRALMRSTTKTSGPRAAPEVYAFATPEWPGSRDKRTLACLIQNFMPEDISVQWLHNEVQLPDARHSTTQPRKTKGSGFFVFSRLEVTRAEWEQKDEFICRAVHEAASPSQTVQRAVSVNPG

**Q.** Which IC50 does the source give for `Cc1cc(Nc2nncn2C2CCc3sc(NC(=O)C4CC4)c(S(=O)(=O)NCC(C)C)c3C2)n(C)n1` (centres unmarked) [Example 167] here?
**A.** The IC50 was < 1000 nM.

**Q.** `CON=C(Nc1ccc(C)cc1)NC1CCc2sc(NC(=O)C3CC3)c(C(=O)NCC3CC3)c2C1` (centres unmarked) [Example 168, 2-(Cyclopropanecarbonylamino)-N-(cyclopropylmethyl)-5-[[N′-methoxy-N-(p-tolyl)carbamimidoyl]amino]-4,5,6,7-tetrahydrobenzothiophene-3-carboxamide] was tested. Which IC50 did it give?
**A.** The IC50 was < 1000 nM.

**Q.** `Cc1ccc(NC2=NS(=O)(=O)N=C2NC2CCc3sc(NC(=O)C4CC4)c(C(=O)NCC4CC4)c3C2)cc1` (centres unmarked) [Example 169, 2-(Cyclopropanecarbonylamino)-N-(cyclopropylmethyl)-5-[[4-(4-methylanilino)-1,1-dioxo-1,2,5-thiadiazol-3-yl]amino]-4,5,6,7-tetrahydrobenzothiophene-3-carboxamide] was tested. Which IC50 did it give?
**A.** Its IC50 is < 1000 nM.

**Q.** `O=C(NCC1CC1)c1c(NC(=O)C2CC2)sc2c1C[C@@H](Nc1nccn1-c1cccnc1)CC2` [Example 170, (5S)-2-(Cyclopropanecarbonylamino)-N-(cyclopropylmethyl)-5-[[1-(3-pyridyl)imidazol-2-yl]amino]-4,5,6,7-tetrahydrobenzothiophene-3-carboxamide] was tested. Which IC50 did it give?
**A.** The IC50 was 1000 to 10000 nM.

**Q.** `Nc1cnnn1C1CCc2sc(NC(=O)C3CC3)c(C(=O)NCC3CC3)c2C1` (centres unmarked) [Example 171, 5-(5-Aminotriazol-1-yl)-2-(cyclopropanecarbonylamino)-N-(cyclopropylmethyl)-4,5,6,7-tetrahydrobenzothiophene-3-carboxamide] was tested. Which IC50 did it give?
**A.** The IC50 was < 1000 nM.

**Q.** How did the IC50 turn out when `COc1ccccc1NC(=O)NC1CCc2sc(NC(=O)C3CC3)c(C(=O)NCC3CC3)c2C1` (centres unmarked) [Example 172, 2-(Cyclopropanecarbonylamino)-N-(cyclopropylmethyl)-5-[(2-methoxyphenyl)carbamoylamino]-4,5,6,7-tetrahydrobenzothiophene-3-carboxamide] was run?
**A.** The IC50 was < 1000 nM.

**Q.** Which IC50 does the source give for `O=C(NC1CCc2sc(NC(=O)C3CC3)c(C(=O)NCC3CC3)c2C1)c1ccncc1` (centres unmarked) [Example 173, N-[2-(Cyclopropanecarbonylamino)-3-(cyclopropylmethylcarbamoyl)-4,5,6,7-tetrahydrobenzothiophen-5-yl]pyridine-4-carboxamide] here?
**A.** The IC50 was 1000 to 10000 nM.

**Q.** For `O=C(NCC1CC1)c1c(NC(=O)C2CC2)sc2c1CC(NCc1ccccc1)CC2` (centres unmarked) [Example 174, 5-(Benzylamino)-2-(cyclopropanecarbonylamino)-N-(cyclopropylmethyl)-4,5,6,7-tetrahydrobenzothiophene-3-carboxamide], which IC50 is on record?
**A.** Its IC50 is 10000 to 50000 nM.

**Q.** How did the IC50 turn out when `O=C(NCC1CC1)c1c(NC(=O)C2CC2)sc2c1CC(Nc1nc3ccccc3[nH]1)CC2` (centres unmarked) [Example 175, 5-(1H-Benzimidazol-2-ylamino)-2-(cyclopropanecarbonylamino)-N-(cyclopropylmethyl)-4,5,6,7-tetrahydrobenzothiophene-3-carboxamide] was run?
**A.** Its IC50 is < 1000 nM.

**Q.** With `NC(=NO)NC1CCc2sc(NC(=O)C3CC3)c(C(=O)NCC3CC3)c2C1` (centres unmarked) [Example 176, 2-(Cyclopropanecarbonylamino)-N-(cyclopropylmethyl)-5-[[N′-hydroxycarbamimidoyl]amino]-4,5,6,7-tetrahydrobenzothiophene-3-carboxamide] as the compound, how does the IC50 read?
**A.** Its IC50 is < 1000 nM.

**Q.** How did the IC50 turn out when `Cc1ccc(NC(=Nc2ccn(C)n2)NC2CCc3sc(NC(=O)C4CC4)c(C(=O)NCC4CC4)c3C2)cc1` (centres unmarked) [Example 177, 2-(Cyclopropanecarbonylamino)-N-(cyclopropylmethyl)-5-[[N′-(1-methylpyrazol-3-yl)-N-(p-tolyl)carbamimidoyl]amino]-4,5,6,7-tetrahydrobenzothiophene-3-carboxamide; formic acid] was run?
**A.** Its IC50 is 1000 to 10000 nM.

**Q.** For `CCNc1nnc(COC)n1C1CCc2sc(NC(=O)C3CC3)c(C(=O)NCC3CC3)c2C1` (centres unmarked) [Example 179, 2-(Cyclopropanecarbonylamino)-N-(cyclopropylmethyl)-5-[3-(ethylamino)-5-(methoxymethyl)-1,2,4-triazol-4-yl]-4,5,6,7-tetrahydrobenzothiophene-3-carboxamide], which IC50 is on record?
**A.** Its IC50 is 1000 to 10000 nM.

**Q.** `O=C(NCC1CC1)c1c(NC(=O)C2CC2)sc2c1CC(Nc1n[nH]c(-c3cccnc3)n1)CC2` (centres unmarked) [Example 180, 2-(Cyclopropanecarbonylamino)-N-(cyclopropylmethyl)-5-[[5-(3-pyridyl)-1H-1,2,4-triazol-3-yl]amino]-4,5,6,7-tetrahydrobenzothiophene-3-carboxamide] was tested. Which IC50 did it give?
**A.** The IC50 was < 1000 nM.

**Q.** For `Cc1ccc(OC(=O)NC2CCc3sc(NC(=O)C4CC4)c(C(=O)NCC4CC4)c3C2)cc1` (centres unmarked) [Example 181, p-Tolyl N-[2-(cyclopropanecarbonylamino)-3-(cyclopropylmethylcarbamoyl)-4,5,6,7-tetrahydrobenzothiophen-5-yl]carbamate], which IC50 is on record?
**A.** Its IC50 is < 1000 nM.

**Q.** With `O=C(NCC1CC1)c1c(NC(=O)C2CC2)sc2c1CC(Nc1ncc3ccccc3n1)CC2` (centres unmarked) [Example 182, 2-(Cyclopropanecarbonylamino)-N-(cyclopropylmethyl)-5-(quinazolin-2-ylamino)-4,5,6,7-tetrahydrobenzothiophene-3-carboxamide] as the compound, how does the IC50 read?
**A.** The IC50 was < 1000 nM.

**Q.** With `O=C(NCC1CC1)c1c(NC(=O)C2CC2)sc2c1CC(Nc1nc3ccccc3o1)CC2` (centres unmarked) [Example 183, 5-(1,3-Benzoxazol-2-ylamino)-2-(cyclopropanecarbonylamino)-N-(cyclopropylmethyl)-4,5,6,7-tetrahydrobenzothiophene-3-carboxamide] as the compound, how does the IC50 read?
**A.** The IC50 was < 1000 nM.

**Q.** For `CCNc1nnc(CO)n1C1CCc2sc(NC(=O)C3CC3)c(C(=O)NCC3CC3)c2C1` (centres unmarked) [Example 184, 2-(Cyclopropanecarbonylamino)-N-(cyclopropylmethyl)-5-[3-(ethylamino)-5-(hydroxymethyl)-1,2,4-triazol-4-yl]-4,5,6,7-tetrahydrobenzothiophene-3-carboxamide], which IC50 is on record?
**A.** Its IC50 is < 1000 nM.

**Q.** How did the IC50 turn out when `Cc1cc(Nc2nncn2C2CCc3sc(NC(=O)C4CC4)c(C(=O)NC4CC(F)(F)C4)c3C2)n(C)n1` (centres unmarked) [Example 185, 2-(cyclopropanecarbonylamino)-N-(3,3-difluorocyclobutyl)-5-[3-[(2,5-dimethylpyrazol-3-yl)amino]-1,2,4-triazol-4-yl]-4,5,6,7-tetrahydrobenzothiophene-3-carboxamide] was run?
**A.** Its IC50 is < 1000 nM.

**Q.** How did the IC50 turn out when `Nc1nccn1[C@H]1CCc2sc(NC(=O)C3CC3)c(C(=O)NCC3CC3)c2C1` [Example 186, (5S)-5-(2-Aminoimidazol-1-yl)-2-(cyclopropanecarbonylamino)-N-(cyclopropylmethyl)-4,5,6,7-tetrahydrobenzothiophene-3-carboxamide] was run?
**A.** The IC50 was < 1000 nM.

**Q.** Which IC50 does the source give for `Nc1noc(=O)n1C1CCc2sc(NC(=O)C3CC3)c(C(=O)NCC3CC3)c2C1` (centres unmarked) [Example 187, 5-(3-Amino-5-oxo-1,2,4-oxadiazol-4-yl)-2-(cyclopropanecarbonylamino)-N-(cyclopropylmethyl)-4,5,6,7-tetrahydrobenzothiophene-3-carboxamide] here?
**A.** The IC50 was < 1000 nM.

**Q.** `CCNc1nnc(C)n1C1CCc2sc(NC(=O)C3CC3)c(C(=O)NCC3CC3)c2C1` (centres unmarked) [Example 188, 2-(Cyclopropanecarbonylamino)-N-(cyclopropylmethyl)-5-[3-(ethylamino)-5-methyl-1,2,4-triazol-4-yl]-4,5,6,7-tetrahydrobenzothiophene-3-carboxamide] was tested. Which IC50 did it give?
**A.** The IC50 was < 1000 nM.

**Q.** Which IC50 does the source give for `O=C(NCC1CC1)c1c(NC(=O)C2CC2)sc2c1CC(Nc1ncccn1)CC2` (centres unmarked) [Example 191, 2-(Cyclopropanecarbonylamino)-N-(cyclopropylmethyl)-5-(pyrimidin-2-ylamino)-4,5,6,7-tetrahydrobenzothiophene-3-carboxamide] here?
**A.** The IC50 was < 1000 nM.

**Q.** Which IC50 does the source give for `O=C(NCC1CC1)c1c(NC(=O)C2CC2)sc2c1CC(Nc1nnco1)CC2` (centres unmarked) [Example 192, 2-(Cyclopropanecarbonylamino)-N-(cyclopropylmethyl)-5-(1,3,4-oxadiazol-2-ylamino)-4,5,6,7-tetrahydrobenzothiophene-3-carboxamide] here?
**A.** Its IC50 is < 1000 nM.

**Q.** How did the IC50 turn out when `Cc1cc(Nc2nncn2C2CCc3sc(NC(=O)C4CC4)c(C(=O)NC4CC(F)C4)c3C2)n(C)n1` (centres unmarked) [Example 193, 2-(cyclopropanecarbonylamino)-5-[3-[(2,5-dimethylpyrazol-3-yl)amino]-1,2,4-triazol-4-yl]-N-(3-fluorocyclobutyl)-4,5,6,7-tetrahydrobenzothiophene-3-carboxamide] was run?
**A.** The IC50 was < 1000 nM.

**Q.** With `Cc1ccc(N2C(=O)CN=C2NC2CCc3sc(NC(=O)C4CC4)c(C(=O)NCC4CC4)c3C2)cc1` (centres unmarked) [Example 194, 2-(Cyclopropanecarbonylamino)-N-(cyclopropylmethyl)-5-[[5-oxo-1-(p-tolyl)-4H-imidazol-2-yl]amino]-4,5,6,7-tetrahydrobenzothiophene-3-carboxamide] as the compound, how does the IC50 read?
**A.** Its IC50 is 1000 to 10000 nM.

**Q.** How did the IC50 turn out when `CCN(C)c1c(NC2CCc3sc(NC(=O)C4CC4)c(C(=O)NCC4CC4)c3C2)c(=O)c1=O` (centres unmarked) [Example 195, 2-(Cyclopropanecarbonylamino)-N-(cyclopropylmethyl)-5-[[2-[ethyl(methyl)amino]-3,4-dioxo-cyclobuten-1-yl]amino]-4,5,6,7-tetrahydrobenzothiophene-3-carboxamide] was run?
**A.** Its IC50 is < 1000 nM.

**Q.** For `CS(=N)(=O)NC1CCc2sc(NC(=O)C3CC3)c(C(=O)NCC3CC3)c2C1` (centres unmarked) [Example 196, 2-(Cyclopropanecarbonylamino)-N-(cyclopropylmethyl)-5-[(methylsulfonimidoyl)amino]-4,5,6,7-tetrahydrobenzothiophene-3-carboxamide], which IC50 is on record?
**A.** The IC50 was 1000 to 10000 nM.

**Q.** `CC(=NC#N)NC1CCc2sc(NC(=O)C3CC3)c(C(=O)NCC3CC3)c2C1` (centres unmarked) [Example 197, 5-[[N-Cyano-C-methyl-carbonimidoyl]amino]-2-(cyclopropanecarbonylamino)-N-(cyclopropylmethyl)-4,5,6,7-tetrahydrobenzothiophene-3-carboxamide] was tested. Which IC50 did it give?
**A.** The IC50 was < 1000 nM.

**Q.** With `O=C(NCC1CC1)c1c(NC(=O)C2CC2)sc2c1CC(n1cnnn1)CC2` (centres unmarked) [Example 198, 2-(Cyclopropanecarbonylamino)-N-(cyclopropylmethyl)-5-(tetrazol-1-yl)-4,5,6,7-tetrahydrobenzothiophene-3-carboxamide] as the compound, how does the IC50 read?
**A.** The IC50 was < 1000 nM.

Source: patent publication US12018021B2 (UCB Biopharma SRL, priority 2018, dated 2024)
